Measurements from ChEMBL document CHEMBL5154749 (Eur J Med Chem, 2022).
Active and inactive are the calls of the source. The rule behind the calls is not given here.

Assays:
HT-29 [1] = assay: Induction of apoptosis in human HT-29 cells assessed as late apoptotic cells at 3 uM measured after 48 hrs by Annexin V-FITC/Propidium iodide staining based flow cytometry analysis (reference value: 0.71%); format: functional
LoVo [2] = assay: Induction of apoptosis in human LoVo cells deficient in ATM assessed as early apoptotic cells at 0.3 uM measured after 24 hrs by Annexin V-FITC/Propidium iodide staining based flow cytometric analysis (reference value: 4.20%); format: functional
LoVo [3] = assay: Induction of apoptosis in human LoVo cells deficient in ATM assessed as late apoptotic cells at 3 uM measured after 24 hrs by Annexin V-FITC/Propidium iodide staining based flow cytometry analysis (reference value: 3.32%); format: functional
HT-29 [4] = assay: Induction of apoptosis in human HT-29 cells assessed as early apoptotic cells at 3 uM measured after 48 hrs by Annexin V-FITC/Propidium iodide staining based flow cytometry analysis (reference value: 1.55%); format: functional
HCT-116 = assay: Antiproliferative activity against ATM proficient human HCT-116 cells assessed as reduction in cell viability incubated for 72 hrs by MTT assay; format: functional, cell-based; conditions: dose 0.001-100 µM, DDE = dose-dependent effect
HT-29 [5] = assay: Induction of apoptosis in human HT-29 cells assessed as viable cells at 0.3 uM measured after 48 hrs in presence of AZD1390 by Annexin V-FITC/Propidium iodide staining based flow cytometry analysis (reference value: 95.33%); format: functional; conditions: read-out: Activity
[6] = target: T1, Serine/threonine-protein kinase ATR (Homo sapiens, UniProt Q13535); assay: Inhibition of ATR signalling in ATM-deficient human LoVo cells assessed as inhibition of ATR phosphorylation incubated for 1 hr followed by hydroxyurea addition measured after 4 hrs by Western blot analysis; format: cell-based; conditions: dose <= 3.0 µM, time 5.0 hrs, DDE = dose-dependent effect
Target sequence in this assay (Q13535 whole entry, looked up): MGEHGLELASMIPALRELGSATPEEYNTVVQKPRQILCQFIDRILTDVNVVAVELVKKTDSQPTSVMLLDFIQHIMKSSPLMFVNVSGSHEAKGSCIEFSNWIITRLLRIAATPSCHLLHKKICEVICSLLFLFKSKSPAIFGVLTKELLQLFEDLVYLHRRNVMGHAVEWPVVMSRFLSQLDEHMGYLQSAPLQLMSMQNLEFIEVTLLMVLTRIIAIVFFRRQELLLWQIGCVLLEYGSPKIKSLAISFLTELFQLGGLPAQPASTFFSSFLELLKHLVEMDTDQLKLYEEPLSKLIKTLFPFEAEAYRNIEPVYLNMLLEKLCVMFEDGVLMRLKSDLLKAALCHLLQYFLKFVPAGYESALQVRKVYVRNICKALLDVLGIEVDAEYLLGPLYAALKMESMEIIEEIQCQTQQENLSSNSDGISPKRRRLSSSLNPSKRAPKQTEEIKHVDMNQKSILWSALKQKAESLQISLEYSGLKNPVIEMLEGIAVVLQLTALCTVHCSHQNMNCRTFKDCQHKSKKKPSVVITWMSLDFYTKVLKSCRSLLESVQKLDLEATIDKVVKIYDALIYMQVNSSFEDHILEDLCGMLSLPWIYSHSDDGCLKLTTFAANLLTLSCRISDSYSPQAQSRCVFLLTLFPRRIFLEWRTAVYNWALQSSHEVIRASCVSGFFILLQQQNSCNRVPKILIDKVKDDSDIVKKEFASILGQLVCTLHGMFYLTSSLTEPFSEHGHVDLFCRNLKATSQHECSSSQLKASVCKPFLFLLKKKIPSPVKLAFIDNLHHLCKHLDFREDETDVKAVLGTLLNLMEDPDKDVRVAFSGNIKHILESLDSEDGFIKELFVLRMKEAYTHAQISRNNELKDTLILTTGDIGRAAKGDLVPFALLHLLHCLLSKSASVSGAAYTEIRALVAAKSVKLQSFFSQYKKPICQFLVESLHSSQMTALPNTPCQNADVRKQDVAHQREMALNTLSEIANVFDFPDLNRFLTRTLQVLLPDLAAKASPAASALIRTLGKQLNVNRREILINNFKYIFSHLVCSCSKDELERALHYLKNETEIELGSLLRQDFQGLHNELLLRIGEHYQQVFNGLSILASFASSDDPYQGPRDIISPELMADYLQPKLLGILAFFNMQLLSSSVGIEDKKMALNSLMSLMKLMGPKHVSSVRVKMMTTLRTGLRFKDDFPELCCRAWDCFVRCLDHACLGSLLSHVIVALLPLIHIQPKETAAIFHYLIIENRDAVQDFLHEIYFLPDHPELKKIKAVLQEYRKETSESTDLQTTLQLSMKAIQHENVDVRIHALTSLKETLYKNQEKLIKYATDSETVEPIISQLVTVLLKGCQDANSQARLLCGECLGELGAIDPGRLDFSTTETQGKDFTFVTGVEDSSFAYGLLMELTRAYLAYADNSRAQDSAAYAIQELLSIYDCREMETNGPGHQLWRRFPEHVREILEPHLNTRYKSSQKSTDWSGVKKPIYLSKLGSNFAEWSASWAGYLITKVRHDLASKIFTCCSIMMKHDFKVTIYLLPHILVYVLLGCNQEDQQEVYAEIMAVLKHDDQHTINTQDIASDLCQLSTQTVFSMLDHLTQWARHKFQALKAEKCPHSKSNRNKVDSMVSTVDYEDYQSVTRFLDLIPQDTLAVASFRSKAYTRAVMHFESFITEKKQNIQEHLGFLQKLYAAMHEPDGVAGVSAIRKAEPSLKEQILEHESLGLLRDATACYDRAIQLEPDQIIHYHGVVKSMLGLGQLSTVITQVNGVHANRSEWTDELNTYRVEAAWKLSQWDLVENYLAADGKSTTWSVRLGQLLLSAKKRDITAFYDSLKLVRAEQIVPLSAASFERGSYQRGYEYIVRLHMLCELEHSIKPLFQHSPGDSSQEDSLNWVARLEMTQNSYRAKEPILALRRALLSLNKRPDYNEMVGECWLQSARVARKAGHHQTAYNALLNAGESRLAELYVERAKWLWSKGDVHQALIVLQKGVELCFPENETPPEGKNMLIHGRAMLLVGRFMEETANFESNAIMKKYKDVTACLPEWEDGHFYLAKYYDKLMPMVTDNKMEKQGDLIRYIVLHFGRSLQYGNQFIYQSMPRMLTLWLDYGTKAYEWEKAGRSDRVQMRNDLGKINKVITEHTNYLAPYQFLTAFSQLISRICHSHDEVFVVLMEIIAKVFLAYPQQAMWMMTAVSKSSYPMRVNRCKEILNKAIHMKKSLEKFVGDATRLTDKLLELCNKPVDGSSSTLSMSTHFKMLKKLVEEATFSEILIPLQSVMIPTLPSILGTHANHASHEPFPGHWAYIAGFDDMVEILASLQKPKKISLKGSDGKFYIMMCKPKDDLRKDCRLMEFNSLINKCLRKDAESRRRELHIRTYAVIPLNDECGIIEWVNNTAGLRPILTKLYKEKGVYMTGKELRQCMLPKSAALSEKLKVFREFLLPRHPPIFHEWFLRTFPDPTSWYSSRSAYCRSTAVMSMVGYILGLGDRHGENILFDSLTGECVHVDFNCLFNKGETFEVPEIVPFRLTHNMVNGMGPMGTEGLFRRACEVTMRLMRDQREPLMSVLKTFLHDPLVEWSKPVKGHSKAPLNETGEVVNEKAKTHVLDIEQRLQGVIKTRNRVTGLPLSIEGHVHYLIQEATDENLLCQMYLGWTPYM

[7] = Cmax in Sprague-Dawley rat at 5 mg/kg, iv measured at 0.083 to 24 hrs by LC-MS/MS method; format: ADME, organism-based; set-up: dose 5 mg/kg, time 0.083-24 hrs, route iv; conditions: in vivo
[8] = Clearance in Sprague-Dawley in rat at 5 mg/kg, iv measured at 0.083 to 24 hrs by LC-MS/MS method; format: ADME, organism-based; conditions: in vivo, time 0.083-24 hrs
[9] = AUC (0 to infinity) in Sprague-Dawley rat at 5 mg/kg, iv measured at 0.083 to 24 hrs by LC-MS/MS method; format: ADME, organism-based; set-up: dose 5 mg/kg, time upper 24 hrs, time lower 0.083 hrs, route iv; conditions: in vivo
[10] = Oral bioavailability in Sprague-Dawley rat at 10 mg/kg measured at 0.083 to 24 hrs by LC-MS/MS method; format: ADME, organism-based; conditions: in vivo, time 0.083-24 hrs
[11] = Half life in Sprague-Dawley rat at 5 mg/kg, iv measured at 0.083 to 24 hrs by LC-MS/MS method; format: ADME, organism-based; conditions: in vivo, time 0.083-24 hrs
HT-29 [12] = assay: Induction of apoptosis in human HT-29 cells assessed as viable cells at 0.3 uM measured after 48 hrs by Annexin V-FITC/Propidium iodide staining based flow cytometry analysis (reference value: 97.01%); format: functional; conditions: read-out: Activity
[13] = target: T1, Serine/threonine-protein kinase ATR; assay: In vivo inhibition of ATR in human LoVo cells xenografted in NOD/SCID mouse assessed as inhibition of Chk1 phosphorylation at 50 to 100 mg/kg, po administered twice a day for 30 days by Western blot analysis; conditions: dose 50-100 mg/kg, time 30.0 day
Target sequence in this assay (Q13535 whole entry, looked up): as above

HepG2 = assay: Antiproliferative activity against ATM proficient human HepG2 cells assessed as reduction in cell viability incubated for 72 hrs by MTT assay; format: functional, cell-based; conditions: dose 0.001-100 µM, DDE = dose-dependent effect
[14] = target: T1, Serine/threonine-protein kinase ATR; assay: Inhibition of human recombinant full length ATR using GST-cMyc-p53 as substrate incubated for 40 mins in presence of ATP by HTRF assay
Target sequence in this assay (Q13535 whole entry): as the sequence (Q13535 whole entry, looked up) above

HT-29 [15] = assay: Induction of apoptosis in human HT-29 cells assessed as necrotic cells at 0.3 uM measured after 48 hrs in presence of AZD1390 by Annexin V-FITC/Propidium iodide staining based flow cytometry analysis (reference value: 0.23%); format: functional
[16] = Toxicity in NOD/SCID mouse xenografted with human LoVo cells assessed as body weight loss at 50 to 100 mg/kg, po administered bid for 30 days; format: organism-based; conditions: in vivo, 720 h, dose 50-100 mg/kg, time 30 day
Granta-519 = assay: Antiproliferative activity against ATM-deficient human Granta-519 cells assessed as reduction in cell viability incubated for 72 hrs by MTT assay; format: functional, cell-based; conditions: dose 0.001-100 µM, DDE = dose-dependent effect
HT-29 [17] = assay: Induction of apoptosis in human HT-29 cells assessed as late apoptotic cells at 1 uM measured after 48 hrs by Annexin V-FITC/Propidium iodide staining based flow cytometry analysis (reference value: 0.71%); format: functional
NCI-H23 = assay: Antiproliferative activity against ATM-deficient human NCI-H23 cells assessed as reduction in cell viability incubated for 72 hrs by MTT assay; format: functional, cell-based; conditions: dose 0.001-100 µM, DDE = dose-dependent effect
LoVo [18] = assay: Induction of apoptosis in human LoVo cells deficient in ATM assessed as early apoptotic cells at 3 uM measured after 24 hrs by Annexin V-FITC/Propidium iodide staining based flow cytometry analysis (reference value: 4.20%); format: functional
[19] = target: T1, Serine/threonine-protein kinase ATR; assay: Inhibition of ATR signalling in ATM-deficient human LoVo cells assessed as change in expression of ATR at up to 3 uM incubated for 1 hr followed by hydroxyurea addition measured after 4 hrs by Western blot analysis; format: cell-based; conditions: time 5.0 hrs
Target sequence in this assay (Q13535 whole entry, looked up): as above

HT-29 [20] = assay: Induction of apoptosis in human HT-29 cells assessed as late apoptotic cells at 0.3 uM measured after 48 hrs in presence of AZD1390 by Annexin V-FITC/Propidium iodide staining based flow cytometry analysis (reference value: 0.63%); format: functional
LoVo [21] = assay: Induction of apoptosis in human LoVo cells deficient in ATM assessed as viable cells at 3 uM measured after 24 hrs by Annexin V-FITC/Propidium iodide staining based flow cytometry analysis (reference value: 91.64%); format: functional; conditions: read-out: Activity
SW-620 = assay: Antiproliferative activity against ATM-deficient human SW-620 cells assessed as reduction in cell viability incubated for 72 hrs by MTT assay; format: functional, cell-based; conditions: dose 0.001-100 µM, DDE = dose-dependent effect
LoVo [22] = assay: In vivo induction of DNA damage in human LoVo cells xenografted in NOD/SCID mouse assessed as increase in gamma H2AX level administered orally twice a day for 30 days by immuno histochemical analysis; format: functional, organism-based; conditions: dose 50-100 mg/kg, route po, time 30.0 day, DDE = dose-dependent effect
LoVo [23] = assay: Induction of DNA damage in human LoVo cells deficient in ATM at 1 uM measured after 3 days by immunofluorescence assay; format: functional, cell-based; conditions: time 3.0 day
[24] = Toxicity in NOD/SCID mouse xenografted with human LoVo cells assessed as damage in lung at 50 to 100 mg/kg, po administered bid for 30 days measured after 2 hrs post last dose by H and E staining method; format: organism-based; conditions: in vivo, 720 h, dose 50-100 mg/kg, time 30 day
HT-29 [25] = assay: Induction of apoptosis in human HT-29 cells assessed as early apoptotic cells at 1 uM measured after 48 hrs in presence of AZD1390 by Annexin V-FITC/Propidium iodide staining based flow cytometry analysis (reference value: 3.81%); format: functional
[26] = Toxicity in NOD/SCID mouse xenografted with human LoVo cells assessed as damage in kidney at 50 to 100 mg/kg, po administered bid for 30 days measured after 2 hrs post last dose by H and E staining method; format: organism-based; conditions: in vivo, 720 h, dose 50-100 mg/kg, time 30 day

inhibition [6]: Dde
Cmax [7]: 3400 ng/mL
clearance [8]: 26.5 mL/min/kg
AUC(0-inf) [9]: 3150 ng·h/mL
bioavailability [10]: 43.1%
half-life [11]: 1.37 h
Activity [13]: Active
IC50 [14]: 13 nM
inhibition [19]: Active
SMILES: C[C@@H]1COCCN1c1nc(-c2cccc3[nH]ccc23)nc2ccc(-c3ccnn3C)cc12
Activity (HT-29 [1]): 2.52%
Activity (LoVo [2]): 24.04%
Activity (LoVo [3]): 28.73%
Activity (HT-29 [4]): 2.64%
Activity (HCT-116): Dde
viability at 0.3 µM (HT-29 [5]): 79%
viability at 0.3 µM (HT-29 [12]): 95.4%
Activity (HepG2): Dde
Activity (HT-29 [15]): 3.91%
Activity [16]: Non-Toxic
Activity (Granta-519): Dde
Activity (HT-29 [17]): 1.92%
Activity (NCI-H23): Dde
Activity (LoVo [18]): 27.07%
Activity (HT-29 [20]): 9.85%
viability at 3 µM (LoVo [21]): 41.2%
Activity (SW-620): Dde
Activity (LoVo [22]): Dde
Activity (LoVo [23]): Active
Activity [24]: Non-Toxic
Activity (HT-29 [25]): 7.45%
Activity [26]: Non-Toxic
